The values that follow come from PubChem BioAssay (NCI).

Test systems include BT-549 breast; 786-0 renal; SR leukemia; DU-145 prostate; HOP-92 NSCLC; CCRF-CEM leukemia; SK-MEL-28 melanoma; CAKI-1 renal; MDA-MB-435; SW-620 colon.
Experiment in all cases: growth of human tumour cells (NCI), 48 h

The structures appear in SMILES notation. Several values for one entry are separate records, joined by “and”; a condition that tells them apart may be missing. Equal entries are not always repeated.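 Tested at 5 concentrations; 48 h exposure; 96-well plates; endpoints linearly interpolated, else capped at highest concentration. GI50: concentration for 50% inhibition of growth. At the TGI there is no net growth.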

For the compound `COc1cc2c(c(OC)c1OC)-c1ccc(N=NC(N)=S)c(=O)cc1[C@@H](NC(C)=O)CC2`, the GI50 with BT-549 breast was 0.624 µM; in the experiment with 786-0 renal, 1.69 µM; in the experiment on SR leukemia, 408 nM; with DU-145 prostate, 0.655 µM; in the experiment on HOP-92 NSCLC it was 1970 nM; in the experiment with CCRF-CEM leukemia, 535 nM. Moreover, the GI50 in the experiment with SK-MEL-28 melanoma was 808 nM; with CAKI-1 renal it was above 24.4 µM; in the experiment on MDA-MB-435, 216 nM; in the experiment on SW-620 colon it was 421 nM. The TGI was above 100 µM in the experiment on BT-549 breast; above 100 µM in the experiment with SR leukemia; 4.66 µM in the experiment on DU-145 prostate; 98.8 µM in the experiment on HOP-92 NSCLC; above 100 µM with CCRF-CEM leukemia; above 100 µM in the experiment on SK-MEL-28 melanoma. Moreover, the TGI was above 100 µM with CAKI-1 renal, 577 nM with MDA-MB-435 and above 100 µM with SW-620 colon.
For the compound `COC(=O)C(C(=O)OC)C(Br)C(Br)C(Br)c1ccccc1` (centres undefined), the GI50 is 14.4 µM in the experiment on BT-549 breast; 11.9 µM in the experiment on 786-0 renal; 2470 nM in the experiment with SR leukemia; 10.6 µM with DU-145 prostate; 11800 nM in the experiment with HOP-92 NSCLC; 2080 nM in the experiment on CCRF-CEM leukemia. Also, the GI50 in the experiment on SK-MEL-28 melanoma is 12500 nM; with CAKI-1 renal, 4.97 µM; with MDA-MB-435, 5660 nM; in the experiment on SW-620 colon, 3290 nM. The TGI with BT-549 breast amounted to 27.9 µM; in the experiment on 786-0 renal, 25.3 µM; with SR leukemia, 6.39 µM; in the experiment on DU-145 prostate, 23 µM; in the experiment with HOP-92 NSCLC, 25.3 µM; with CCRF-CEM leukemia, 5.79 µM. Also, the TGI was found to be 25.3 µM with SK-MEL-28 melanoma, 17.7 µM in the experiment on CAKI-1 renal, 20700 nM in the experiment with MDA-MB-435 and 11.4 µM in the experiment with SW-620 colon.
In the case of `C[C@@H](CO)NC(=O)c1cc(-c2ccc(Cl)cc2)nn(-c2cnn(C)c2)c1=O`, the GI50 with BT-549 breast is 23.7 µM; with 786-0 renal, 23.9 µM; in the experiment with SR leukemia it was 18200 nM; with DU-145 prostate, 29.6 µM; in the experiment on HOP-92 NSCLC, 16600 nM; in the experiment on CCRF-CEM leukemia it was 22100 nM. Moreover, the GI50 with SK-MEL-28 melanoma was 28400 nM; with CAKI-1 renal, 10.4 µM; with MDA-MB-435, 50300 nM; with SW-620 colon, 22900 nM. The TGI in the experiment with BT-549 breast was 86.9 µM; in the experiment with 786-0 renal, above 100 µM; with SR leukemia it was above 100 µM; in the experiment with DU-145 prostate it was above 100 µM; in the experiment with HOP-92 NSCLC, above 100 µM; in the experiment on CCRF-CEM leukemia, above 100 µM. Moreover, the TGI in the experiment on SK-MEL-28 melanoma is 82.1 µM; in the experiment on CAKI-1 renal it was above 100 µM; in the experiment with MDA-MB-435 it was above 100000 nM; in the experiment on SW-620 colon, above 100 µM.
Regarding `Cc1cccc2c3c(sc12)C(c1ccc(F)cc1)C(C#N)=C(N)O3` (centres undefined), the GI50 in the experiment with BT-549 breast was 0.297 µM; with 786-0 renal it was 0.297 µM; with SR leukemia, 46.2 nM; in the experiment with DU-145 prostate it was 0.151 µM; in the experiment with HOP-92 NSCLC it was 1070 nM; in the experiment on CCRF-CEM leukemia it was 43.9 nM. Besides, the GI50 is 1970 nM in the experiment with SK-MEL-28 melanoma, 0.0466 µM in the experiment on CAKI-1 renal, 22.2 nM in the experiment on MDA-MB-435 and 44 nM with SW-620 colon. Besides, the TGI in the experiment with BT-549 breast is 3.18 µM; in the experiment on 786-0 renal, 14.2 µM; with SR leukemia, 20.2 µM; in the experiment on DU-145 prostate, 13 µM; in the experiment on HOP-92 NSCLC, 8.26 µM; in the experiment on CCRF-CEM leukemia, above 59.7 µM. In addition, the TGI in the experiment on SK-MEL-28 melanoma was 20.7 µM; in the experiment on CAKI-1 renal, 12.5 µM; in the experiment on MDA-MB-435 it was 51.4 nM; in the experiment on SW-620 colon, 14.2 µM.
In the case of `COC1CC(N)C(O)C(C)O1` (centres undefined), the TGI in the experiment with BT-549 breast, in the experiment on 786-0 renal, in the experiment on SR leukemia, with DU-145 prostate, with HOP-92 NSCLC and in the experiment with CCRF-CEM leukemia was above 100 µM each time. Also, the TGI with SK-MEL-28 melanoma is above 100 µM; with CAKI-1 renal, above 100 µM; in the experiment with MDA-MB-435, above 100000 nM; in the experiment with SW-620 colon it was above 100 µM.
Turning to `CC1OC(CC(=O)O)CC2=C1C(=O)c1c(O)cccc1C2=O` (centres undefined), the TGI with BT-549 breast came to 0.361 µM; in the experiment on 786-0 renal, 0.336 µM; with SR leukemia it was 0.159 µM; in the experiment with DU-145 prostate, 2.5 µM; with HOP-92 NSCLC it was 0.331 µM; in the experiment with CCRF-CEM leukemia, 0.0957 µM. The TGI came to 0.2 µM in the experiment with SK-MEL-28 melanoma, 0.334 µM in the experiment on CAKI-1 renal, 283 nM with MDA-MB-435 and 0.207 µM with SW-620 colon.
Turning to `O=C(CC1C=Cc2ccccc2N1C(=O)c1ccccc1)c1ccccc1` (centres undefined), the TGI was 69.7 µM with BT-549 breast; above 100 µM with 786-0 renal; 35.4 µM in the experiment on SR leukemia; above 100 µM in the experiment with DU-145 prostate; 86 µM in the experiment on HOP-92 NSCLC; above 100 µM in the experiment on CCRF-CEM leukemia. Further, the TGI in the experiment with SK-MEL-28 melanoma was above 100 µM; with CAKI-1 renal, above 100 µM; in the experiment with MDA-MB-435, 47800 nM; in the experiment with SW-620 colon it was above 100 µM.
As to `COc1ccc2c(c1)-c1nn(CCCN(C)C)c3ccc([N+](=O)[O-])c(c13)N2`, the TGI was 7.19 µM in the experiment with BT-549 breast; 7.68 µM and 12.2 µM with 786-0 renal; 4.72 µM and 2.86 µM in the experiment with DU-145 prostate; 1.77 µM and 4.97 µM in the experiment with HOP-92 NSCLC; 6.45 µM and 8.72 µM with CCRF-CEM leukemia; 7.78 µM and 12.6 µM with SK-MEL-28 melanoma. Further, the TGI in the experiment with CAKI-1 renal is 4.63 µM and 6.34 µM; in the experiment with MDA-MB-435 it was 2900 nM; in the experiment on SW-620 colon, 4.69 µM and 3.65 µM. Moreover, the GI50 in the experiment with SR leukemia was 1270 nM; in the experiment on HOP-92 NSCLC it was 192 nM and 764 nM; in the experiment with CCRF-CEM leukemia, 82.5 nM and 624 nM; in the experiment with SK-MEL-28 melanoma it was 770 nM and 1750 nM; in the experiment on MDA-MB-435, 165 nM and 593 nM; in the experiment with SW-620 colon, 63.3 nM.
